The target in one test is T1, human TLR8 (Homo sapiens, UniProt Q9NR97).
T1 construct: host or cells: HEK293
T1 sequence (Q9NR97 27-1041): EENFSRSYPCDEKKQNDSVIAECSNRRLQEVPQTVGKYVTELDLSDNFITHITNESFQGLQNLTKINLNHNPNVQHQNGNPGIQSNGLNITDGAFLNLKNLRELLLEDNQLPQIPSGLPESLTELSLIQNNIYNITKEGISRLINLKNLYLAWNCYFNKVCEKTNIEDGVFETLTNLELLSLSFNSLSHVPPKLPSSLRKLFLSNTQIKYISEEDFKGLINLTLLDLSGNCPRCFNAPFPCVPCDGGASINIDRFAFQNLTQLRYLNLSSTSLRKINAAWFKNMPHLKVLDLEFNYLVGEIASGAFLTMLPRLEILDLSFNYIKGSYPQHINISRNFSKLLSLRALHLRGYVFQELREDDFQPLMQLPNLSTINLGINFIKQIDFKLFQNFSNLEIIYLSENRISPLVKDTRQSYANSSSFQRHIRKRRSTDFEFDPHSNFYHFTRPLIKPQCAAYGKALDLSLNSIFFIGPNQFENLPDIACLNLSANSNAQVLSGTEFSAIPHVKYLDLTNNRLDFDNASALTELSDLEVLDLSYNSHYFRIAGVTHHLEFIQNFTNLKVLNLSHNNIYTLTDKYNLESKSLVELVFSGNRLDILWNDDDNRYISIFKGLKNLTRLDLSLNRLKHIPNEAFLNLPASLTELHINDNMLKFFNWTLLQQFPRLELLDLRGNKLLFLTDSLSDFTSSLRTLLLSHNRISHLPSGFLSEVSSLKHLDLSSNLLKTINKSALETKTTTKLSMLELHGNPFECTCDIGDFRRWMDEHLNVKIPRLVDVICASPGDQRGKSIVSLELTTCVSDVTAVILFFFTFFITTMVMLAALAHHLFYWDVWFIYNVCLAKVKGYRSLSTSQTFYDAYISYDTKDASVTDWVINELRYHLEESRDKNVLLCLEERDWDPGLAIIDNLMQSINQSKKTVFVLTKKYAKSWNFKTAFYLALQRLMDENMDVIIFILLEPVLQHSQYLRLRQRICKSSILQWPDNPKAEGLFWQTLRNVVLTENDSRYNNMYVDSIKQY
Briefly: HEK293 hTLR8 NFKB-SEAP reporter assay. The following applies: for EC50: HEK293 stably transfected with hTLR8, 24 h stimulation, aqueous formulations of choline salts (2% glycerol), SEAP readout, read-out: TLR8 ED50. In kind it is cell-based. How it is done:
(§1) Determination of TLR agonist activity was performed using the HEK293 binding assay.
(§2) This assay measures TLR7 and TLR8 selectivity and potency of the compounds tested. HEK293 cells expressing human TLR7 or TLR8 and NFKB responsive Secreted Embryonic Alkaline Phosphatase (SEAP) reporter gene were obtained from InvitroGen (San Diego, Calif.). These cells were maintained in culture media of Dulbecco's Modified Eagle Medium (DMEM) (Invitrogen, Grand Island, N.Y.), 10% Fetal Bovine Serum (FBS) (Sigma, St. Louis, Mo.) and selection antibiotics (Invitrogen, and Invitrogen). HEK293 stably transfected with human TLR7 (hTLR7) or human TLR8 (hTLR8) were stimulated for 24 h with aqueous formulations of compounds and culture supernatants were analysed for NFKB activation using the colorimetric SEAP detection kit QuantBlue (InvitroGen).
(§3) Choline salts of the compounds were prepared in aqueous solution (2% glycerol) and sonicated to reduce particle size to 120-370 nm.

The next test concerns the target T2, human TLR7 (Homo sapiens, UniProt Q9NYK1).
T2 construct: host or cells: HEK293
T2 sequence (Q9NYK1 27-1049): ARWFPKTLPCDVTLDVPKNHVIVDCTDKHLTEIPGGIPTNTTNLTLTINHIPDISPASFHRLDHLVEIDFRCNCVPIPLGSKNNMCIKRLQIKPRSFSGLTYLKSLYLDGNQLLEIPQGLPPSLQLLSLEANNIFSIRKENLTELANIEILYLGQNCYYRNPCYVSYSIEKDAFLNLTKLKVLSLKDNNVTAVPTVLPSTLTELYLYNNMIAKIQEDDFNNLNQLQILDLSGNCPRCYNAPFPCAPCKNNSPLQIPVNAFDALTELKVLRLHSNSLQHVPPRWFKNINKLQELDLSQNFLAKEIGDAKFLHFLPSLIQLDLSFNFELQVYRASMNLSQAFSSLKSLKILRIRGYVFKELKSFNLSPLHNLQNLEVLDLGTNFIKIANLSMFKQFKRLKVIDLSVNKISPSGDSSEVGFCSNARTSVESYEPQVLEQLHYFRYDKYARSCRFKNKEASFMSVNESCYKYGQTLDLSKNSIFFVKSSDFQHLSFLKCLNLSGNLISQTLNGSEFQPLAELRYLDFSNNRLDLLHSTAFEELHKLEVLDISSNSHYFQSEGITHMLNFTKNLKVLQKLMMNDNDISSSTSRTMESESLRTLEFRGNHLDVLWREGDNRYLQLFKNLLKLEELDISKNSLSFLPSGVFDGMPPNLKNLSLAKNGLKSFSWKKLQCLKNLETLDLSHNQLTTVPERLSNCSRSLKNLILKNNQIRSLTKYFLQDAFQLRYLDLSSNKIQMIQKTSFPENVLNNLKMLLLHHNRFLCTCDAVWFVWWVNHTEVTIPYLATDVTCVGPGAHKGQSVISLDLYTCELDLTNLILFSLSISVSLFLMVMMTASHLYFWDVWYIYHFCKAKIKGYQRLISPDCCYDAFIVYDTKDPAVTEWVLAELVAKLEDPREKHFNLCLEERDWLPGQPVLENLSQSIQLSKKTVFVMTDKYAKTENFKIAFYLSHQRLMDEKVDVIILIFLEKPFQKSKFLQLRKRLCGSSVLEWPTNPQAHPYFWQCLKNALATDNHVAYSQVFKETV
Briefly: HEK293 hTLR7 NFKB-SEAP reporter assay. In kind it is cell-based. The following applies: for EC50: HEK293 stably transfected with hTLR7, 24 h stimulation, aqueous formulations of choline salts (2% glycerol), SEAP readout, read-out: TLR7 ED50; for TLR7/8 ratio: ratio of TLR7 ED50 to TLR8 ED50, HEK293 reporter cells. How it is done: as §1, §2, §3
For orientation: Reporter assays use an easily measured gene product as a stand-in for the process of interest.

Regarding `CCC[C@H](C)Oc1nc(N)c2[nH]c(=O)n(CC3CCN(CCO)CC3)c2n1`, the EC50 on human TLR8 is 530 nM. On human TLR7, the EC50 turned out to be 340 nM and the TLR7/8 ratio is recorded as 0.6.
As to `CCCCCCCC/C=C\CCCCCCCC(=O)OC[C@H](COP(=O)(O)OCCN1CCC(Cn2c(=O)[nH]c3c(N)nc(O[C@@H](C)CCC)nc32)CC1)OC(=O)CCCCCCC/C=C\CCCCCCCC` [Compound 1], the “hTLR8 activity compared with parent core oxoadenine compound” value on human TLR8 (HEK293 hTLR8, result in words) is “slightly more potent”. Also, the EC50 on human TLR8 is 470 nM. In addition, the “hTLR7 activity compared with parent core oxoadenine compound” value on human TLR7 (HEK293 hTLR7, result in words) is “slightly more potent”. Further, the “TLR7/TLR8 selectivity in words” value at human TLR7 (HEK293 hTLR7 vs hTLR8, relative to similar prior art compounds) was “TLR7 bias”. In addition, at human TLR7, the EC50 was 320 nM and the TLR7/8 ratio is recorded as 0.7.
`CCCCc1nc2c(N)nc3ccccc3c2n1CCO` [reference compound]: at human TLR8, the EC50 stood at 190 nM. In addition, on human TLR7, the EC50 stood at 580 nM and the TLR7/8 ratio is 3.1.
As for `CC/C=C\CC(=O)OC[C@H](COP(=O)(O)OCCn1c(CCCC)nc2c(N)nc3ccccc3c21)OC(=O)C/C=C\CC` [reference compound], the EC50 at human TLR8 is 26000 nM; on human TLR7, 34600 nM. Also, the TLR7/8 ratio on human TLR7 was determined as 1.3.
